The results in this text go back to US12568972B2, “Pyridazinol compounds and derivatives, preparation methods, herbicidal compositions and applications thereof” (Qingdao Kingagroot Chemical Compound Co., Ltd., priority 2018, dated 2026).

As usually defined, the inhibition is the change of the read-out against control, counted positive when it falls.

Assay in all cases: Post-emergence test, weed control effect
Holding throughout (assay type): in vivo

One experiment has as its system Setaria viridis. The settings on record: 504 h, after 3 weeks, fresh weight inhibition, read-out: activity level of harmful plant destruction (growth inhibition rate), Setaria viridis. An outline of the steps:
(§1)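 Scores use a 0 (no effect) to 10 (dead) scale of fresh-weight inhibition, assessed 3 weeks after spraying. Treatment was at the 2-3 leaf stage, 2-3 weeks post-sowing, using acetone/Tween-80/water solutions with 80% vegetable oil methyl ester synergist at 1500 g/ha.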

For another experiment, the system named is Chenopodiaceae. As to conditions: after 3 weeks; for inhibition at 300 g/ha / inhibition at 150 g/ha: 504 h, fresh weight inhibition, read-out: activity level of harmful plant destruction (growth inhibition rate), Chenopodiaceae. A digest of the protocol: as §1
The test system of the next experiment is Rorippa indica. As to conditions: after 3 weeks; for inhibition at 300 g/ha / inhibition at 150 g/ha: Rorippa indica, 504 h, fresh weight inhibition, read-out: activity level of harmful plant destruction (growth inhibition rate), Rorippa indica. A digest of the protocol: as §1
A further experiment concerns Amaranthus retroflexus. The settings on record: after 3 weeks. A digest of the protocol:
as §1

For another experiment, the system named is Veronica polita. The settings on record: after 3 weeks; for inhibition at 300 g/ha / inhibition at 150 g/ha: Veronica polita, 504 h, fresh weight inhibition, read-out: activity level of harmful plant destruction (growth inhibition rate), Veronica polita. An outline of the steps:
as §1

The test system of the next experiment is Echinochloa crus-galli. As to conditions: 504 h, after 3 weeks, fresh weight inhibition, read-out: activity level of harmful plant destruction (growth inhibition rate), Echinochloa crus-galli. A digest of the protocol: as §1
A further experiment deals with Galium aparine. The settings on record: 504 h, after 3 weeks, fresh weight inhibition, read-out: activity level of harmful plant destruction (growth inhibition rate), Galium aparine. A digest of the protocol:
as §1

Regarding `Oc1cc(C(F)(F)F)nnc1-c1cc(F)cc(F)c1` [Compound 35], the inhibition at 300 g/ha was 100% with Setaria viridis; 100% in the experiment on Chenopodiaceae; 100% in the experiment on Rorippa indica; 100% in the experiment with Veronica polita; 100% in the experiment with Echinochloa crus-galli; 90 to 100% with Galium aparine. Moreover, in the experiment with Chenopodiaceae (dose 1000 g/ha), the “weed control effect (activity level), Chenopodiaceae” value is 10. Besides, the “weed control effect (activity level), Rorippa indica” value with Rorippa indica (dose 1000 g/ha) amounted to 10. Besides, in the experiment on Amaranthus retroflexus (dose 1000 g/ha), the “weed control effect (activity level), Amaranthus retroflexus” value turned out to be 10. For the same compound, the “weed control effect (activity level), Veronica polita” value in the experiment on Veronica polita (dose 1000 g/ha) is on record as 10.

Consider `CCCCCCCCSC(=O)Oc1cc(C(F)(F)F)nnc1-c1ccc(F)c(F)c1` [Compound 1-55], for which the inhibition at 150 g/ha in the experiment on Setaria viridis, in the experiment on Chenopodiaceae, with Rorippa indica, with Veronica polita, in the experiment with Echinochloa crus-galli and with Galium aparine was 100% throughout. Further, the “weed control effect, Chenopodiaceae (activity level)” value in the experiment with Chenopodiaceae (Dose 3000 g/ha) came to 10. In addition, the “weed control effect, Rorippa indica (activity level)” value with Rorippa indica (Dose 3000 g/ha) was 10. Besides, the “weed control effect, Amaranthus retroflexus (activity level)” value with Amaranthus retroflexus (Dose 3000 g/ha) was 10. Further, the “weed control effect, Veronica polita (activity level)” value in the experiment on Veronica polita (Dose 3000 g/ha) amounted to 10.

Consider `CCCCCCCCOC(=O)Oc1cc(C(F)(F)F)nnc1-c1ccc(F)cc1` [Compound 1-39], for which the inhibition at 150 g/ha in the experiment on Setaria viridis, in the experiment on Chenopodiaceae, in the experiment with Rorippa indica, with Veronica polita, in the experiment with Echinochloa crus-galli and with Galium aparine was 100% in each case. For the same compound, in the experiment with Chenopodiaceae (Dose 3000 g/ha), the “weed control effect, Chenopodiaceae (activity level)” value was determined as 10. For the same compound, in the experiment with Rorippa indica (Dose 3000 g/ha), the “weed control effect, Rorippa indica (activity level)” value is reported as 10. For the same compound, in the experiment with Amaranthus retroflexus (Dose 3000 g/ha), the “weed control effect, Amaranthus retroflexus (activity level)” value amounted to 10. Moreover, the “weed control effect, Veronica polita (activity level)” value in the experiment on Veronica polita (Dose 3000 g/ha) amounted to 10.

In the case of `Oc1cc(C(F)(F)F)nnc1-c1ccc(F)c(F)c1` [Compound 744], the inhibition at 300 g/ha in the experiment on Setaria viridis, with Chenopodiaceae, with Rorippa indica, with Veronica polita, with Echinochloa crus-galli and in the experiment on Galium aparine was 100% in each case. Also, the “weed control effect (activity level), Chenopodiaceae” value with Chenopodiaceae (Dose 3000 g/ha) stood at 10. Besides, the “weed control effect (activity level), Rorippa indica” value with Rorippa indica (Dose 3000 g/ha) is given as 10. In addition, in the experiment on Amaranthus retroflexus (Dose 3000 g/ha), the “weed control effect (activity level), Amaranthus retroflexus” value is given as 10. Further, the “weed control effect (activity level), Veronica polita” value with Veronica polita (Dose 3000 g/ha) is 10.
